Results: ChEMBL document CHEMBL4152244, “Discovery of new erbB4 inhibitors: Repositioning an orphan chemical library by inverse virtual screening” (Eur J Med Chem, 2018)
Activity calls are given as the source filed them. The calls are words filed in the database; no cut-off is given here.

What was measured:
[1] = molecular target: T1, Receptor tyrosine-protein kinase erbB-4 (Homo sapiens, UniProt Q15303); assay: Inhibition of recombinant human N-terminal GST-His6-fused erbB4 expressed in Sf9 insect cells at 10 uM using poly (Glu, Tyr) 4:1 as substrate after 60 mins in presence of [gamma-33P]-ATP by microplate scintillation counting method relative to control
T1 sequence (Q15303 whole entry, the tested form may be a part): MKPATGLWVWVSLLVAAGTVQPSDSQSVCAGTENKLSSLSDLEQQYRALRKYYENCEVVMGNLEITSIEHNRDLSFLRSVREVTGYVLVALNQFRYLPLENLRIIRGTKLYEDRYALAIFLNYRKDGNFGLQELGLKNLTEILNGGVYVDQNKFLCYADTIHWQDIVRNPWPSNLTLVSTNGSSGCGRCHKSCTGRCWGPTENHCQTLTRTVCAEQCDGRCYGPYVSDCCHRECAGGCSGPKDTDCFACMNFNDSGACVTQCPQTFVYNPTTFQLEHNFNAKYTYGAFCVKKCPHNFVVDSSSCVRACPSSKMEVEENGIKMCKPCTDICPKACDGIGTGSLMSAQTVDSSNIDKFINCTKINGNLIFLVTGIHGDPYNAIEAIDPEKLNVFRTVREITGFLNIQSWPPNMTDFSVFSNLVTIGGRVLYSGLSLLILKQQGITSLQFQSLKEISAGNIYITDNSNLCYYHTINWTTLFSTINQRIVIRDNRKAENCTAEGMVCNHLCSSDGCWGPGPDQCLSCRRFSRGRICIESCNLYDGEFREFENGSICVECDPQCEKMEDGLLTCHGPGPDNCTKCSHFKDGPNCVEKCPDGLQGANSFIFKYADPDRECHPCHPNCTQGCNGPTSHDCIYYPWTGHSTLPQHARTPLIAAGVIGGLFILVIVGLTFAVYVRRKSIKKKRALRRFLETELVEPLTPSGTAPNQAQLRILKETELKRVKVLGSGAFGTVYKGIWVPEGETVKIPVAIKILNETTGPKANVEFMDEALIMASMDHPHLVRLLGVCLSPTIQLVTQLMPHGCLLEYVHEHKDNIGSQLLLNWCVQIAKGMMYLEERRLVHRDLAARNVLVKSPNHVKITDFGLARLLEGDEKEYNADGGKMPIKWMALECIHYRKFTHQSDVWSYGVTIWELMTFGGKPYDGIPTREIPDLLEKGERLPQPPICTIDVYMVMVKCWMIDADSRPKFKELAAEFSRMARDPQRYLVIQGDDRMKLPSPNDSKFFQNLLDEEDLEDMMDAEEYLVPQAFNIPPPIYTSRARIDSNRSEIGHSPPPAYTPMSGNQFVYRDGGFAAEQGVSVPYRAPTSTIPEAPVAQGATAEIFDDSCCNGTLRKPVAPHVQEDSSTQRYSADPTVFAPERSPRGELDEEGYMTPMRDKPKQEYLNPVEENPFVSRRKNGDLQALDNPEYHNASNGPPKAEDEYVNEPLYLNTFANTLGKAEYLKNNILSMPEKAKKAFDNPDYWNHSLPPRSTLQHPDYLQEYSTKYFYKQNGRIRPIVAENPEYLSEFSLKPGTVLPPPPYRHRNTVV

[2] = molecular target: T2, 3-phosphoinositide-dependent protein kinase 1 (Homo sapiens) (UniProt O15530); assay: Inhibition of recombinant human N-terminal His6-fused pdk1 expressed in Sf9 insect cells at 10 uM using tetra (LRRWSLG) as substrate after 60 mins in presence of [gamma-33P]-ATP by microplate scintillation counting method relative to control
T2 sequence (whole entry): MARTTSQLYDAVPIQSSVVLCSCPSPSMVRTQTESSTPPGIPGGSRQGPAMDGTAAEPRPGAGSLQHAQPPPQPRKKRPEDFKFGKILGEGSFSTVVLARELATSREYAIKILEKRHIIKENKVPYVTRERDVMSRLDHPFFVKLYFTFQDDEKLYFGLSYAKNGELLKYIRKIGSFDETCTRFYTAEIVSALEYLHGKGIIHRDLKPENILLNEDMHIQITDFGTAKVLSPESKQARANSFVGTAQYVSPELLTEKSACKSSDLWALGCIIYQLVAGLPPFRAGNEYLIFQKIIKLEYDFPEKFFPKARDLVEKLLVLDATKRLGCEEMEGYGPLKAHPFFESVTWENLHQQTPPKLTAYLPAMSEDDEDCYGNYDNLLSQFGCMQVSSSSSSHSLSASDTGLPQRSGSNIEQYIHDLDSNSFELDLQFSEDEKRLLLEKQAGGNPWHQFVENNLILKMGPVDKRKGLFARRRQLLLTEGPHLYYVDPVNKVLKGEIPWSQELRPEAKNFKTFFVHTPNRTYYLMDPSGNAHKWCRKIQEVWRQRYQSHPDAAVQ

[3] = molecular target: T3, Ephrin type-A receptor 3 (Homo sapiens) (UniProt P29320); assay: Inhibition of recombinant human N-terminal GST-His6-fused ephA3 expressed in Sf9 insect cells at 10 uM using poly (Glu, Tyr) 4:1 as substrate after 60 mins in presence of [gamma-33P]-ATP by microplate scintillation counting method relative to control
T3 sequence (whole entry): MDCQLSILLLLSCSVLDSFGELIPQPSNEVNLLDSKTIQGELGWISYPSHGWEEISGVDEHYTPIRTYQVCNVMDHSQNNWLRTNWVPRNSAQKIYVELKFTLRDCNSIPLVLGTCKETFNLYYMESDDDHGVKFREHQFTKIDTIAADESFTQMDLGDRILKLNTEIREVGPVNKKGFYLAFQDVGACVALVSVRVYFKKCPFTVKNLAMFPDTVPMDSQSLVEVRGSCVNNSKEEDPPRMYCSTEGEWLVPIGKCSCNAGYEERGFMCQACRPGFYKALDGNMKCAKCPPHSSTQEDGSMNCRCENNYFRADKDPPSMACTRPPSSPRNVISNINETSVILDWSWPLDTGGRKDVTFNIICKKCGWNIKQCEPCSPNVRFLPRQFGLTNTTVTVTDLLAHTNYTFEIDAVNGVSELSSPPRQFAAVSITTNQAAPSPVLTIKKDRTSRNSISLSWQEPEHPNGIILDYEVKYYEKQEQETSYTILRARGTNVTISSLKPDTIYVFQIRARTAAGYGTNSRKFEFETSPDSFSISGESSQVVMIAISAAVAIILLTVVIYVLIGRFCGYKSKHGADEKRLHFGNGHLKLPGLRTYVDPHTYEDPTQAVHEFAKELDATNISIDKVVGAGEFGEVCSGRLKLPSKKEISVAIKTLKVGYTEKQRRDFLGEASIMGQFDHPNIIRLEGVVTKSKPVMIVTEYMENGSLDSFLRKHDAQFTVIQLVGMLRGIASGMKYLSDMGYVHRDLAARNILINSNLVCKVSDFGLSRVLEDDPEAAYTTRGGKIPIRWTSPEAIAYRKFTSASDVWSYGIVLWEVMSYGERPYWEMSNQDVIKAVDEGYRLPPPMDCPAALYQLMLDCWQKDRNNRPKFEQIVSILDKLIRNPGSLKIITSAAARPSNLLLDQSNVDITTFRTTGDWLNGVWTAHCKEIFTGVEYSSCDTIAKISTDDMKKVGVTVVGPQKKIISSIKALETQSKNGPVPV

[4] = molecular target: T1, Receptor tyrosine-protein kinase erbB-4; assay: Inhibition of recombinant human N-terminal GST-His6-fused erbB4 expressed in Sf9 insect cells using poly (Glu, Tyr) 4:1 as substrate after 60 mins in presence of [gamma-33P]-ATP by microplate scintillation counting method
[5] = molecular target: Receptor tyrosine-protein kinase erbB-2 (Homo sapiens, UniProt P04626); assay: Inhibition of recombinant human N-terminal GST-His6-fused erbB2 expressed in Sf9 insect cells using poly (Glu, Tyr) 4:1 as substrate after 60 mins in presence of [gamma-33P]-ATP by microplate scintillation counting method
Sequence of Receptor tyrosine-protein kinase erbB-2 (P04626 whole entry, the tested form may be a part): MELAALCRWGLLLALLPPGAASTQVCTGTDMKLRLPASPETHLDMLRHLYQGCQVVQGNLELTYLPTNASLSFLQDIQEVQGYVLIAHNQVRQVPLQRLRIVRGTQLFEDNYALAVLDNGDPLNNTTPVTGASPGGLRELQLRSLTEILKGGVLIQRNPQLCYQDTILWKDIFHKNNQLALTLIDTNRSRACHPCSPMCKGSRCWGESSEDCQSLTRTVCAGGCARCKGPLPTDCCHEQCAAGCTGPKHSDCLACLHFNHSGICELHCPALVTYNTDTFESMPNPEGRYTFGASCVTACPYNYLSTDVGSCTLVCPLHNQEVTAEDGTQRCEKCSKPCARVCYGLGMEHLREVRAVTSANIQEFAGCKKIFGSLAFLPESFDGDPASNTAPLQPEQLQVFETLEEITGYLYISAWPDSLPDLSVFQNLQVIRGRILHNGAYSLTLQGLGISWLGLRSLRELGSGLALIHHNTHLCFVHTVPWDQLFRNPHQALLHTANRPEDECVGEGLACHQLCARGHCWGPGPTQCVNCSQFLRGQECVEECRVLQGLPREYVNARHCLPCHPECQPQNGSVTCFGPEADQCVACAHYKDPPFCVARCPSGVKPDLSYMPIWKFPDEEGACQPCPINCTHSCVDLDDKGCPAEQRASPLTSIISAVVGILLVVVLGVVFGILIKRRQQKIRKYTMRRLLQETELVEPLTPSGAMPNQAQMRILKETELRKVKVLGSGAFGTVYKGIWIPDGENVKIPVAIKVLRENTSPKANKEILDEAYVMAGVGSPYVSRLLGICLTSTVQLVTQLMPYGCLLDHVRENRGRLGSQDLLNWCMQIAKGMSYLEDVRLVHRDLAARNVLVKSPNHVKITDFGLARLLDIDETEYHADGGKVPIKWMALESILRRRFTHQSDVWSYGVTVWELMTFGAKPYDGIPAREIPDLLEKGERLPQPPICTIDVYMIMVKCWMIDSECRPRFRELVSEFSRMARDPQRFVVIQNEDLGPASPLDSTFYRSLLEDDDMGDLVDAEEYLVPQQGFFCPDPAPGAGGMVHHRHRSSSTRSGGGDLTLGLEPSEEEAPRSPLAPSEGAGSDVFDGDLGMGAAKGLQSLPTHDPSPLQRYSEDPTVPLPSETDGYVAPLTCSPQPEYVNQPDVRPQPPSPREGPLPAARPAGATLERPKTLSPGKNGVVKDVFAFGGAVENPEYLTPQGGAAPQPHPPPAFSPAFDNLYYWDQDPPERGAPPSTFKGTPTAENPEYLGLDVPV

[6] = test system: MCF7; assay: Cytotoxicity against human MCF7 cells after 24 hrs by MTT assay; assay type: functional, cell-based; details: MCF7, 24 h
[7] = test system: MCF7; assay: Induction of cell death in human MCF7 cells assessed as appearance of sub-G0 hypodiploid nuclei at 1 uM after 24 hrs by propidium iodide staining-based flow cytometric method; assay type: functional
[8] = test system: MCF7; assay: Cell cycle arrest in human MCF7 cells assessed as accumulation at G2/M phase at 1 uM after 24 hrs by propidium iodide staining-based flow cytometric method; assay type: functional

inhibition [1]	inhibition [2]	inhibition [3]	IC50 [4]	IC50 [5]	Structure (SMILES)	IC50 [6]	Activity [7]	Activity [8]
9%					Cc1noc(C)c1-c1cc(C(F)(F)F)cc(S(=O)(=O)NCCc2cccc(F)c2)c1			
12.8%	27.6%				COc1cc(-c2cc(C(F)(F)F)cc(S(=O)(=O)NCCc3cccc(F)c3)c2)ccc1F			
34.3%	5.7%				O=S(=O)(NCCc1cccc(F)c1)c1cc(-c2cccc(S(=O)(=O)N3CCCC3)c2)cc(C(F)(F)F)c1			
63.1%	52.7%	30.4%	4.41 µM	9.71 µM	O=S(=O)(NCCc1cccc(F)c1)c1cc(-c2ccccc2COc2cccc(C(F)(F)F)c2)cc(C(F)(F)F)c1	44.2 µM		
19.1%	40.5%				COc1ccc(F)cc1-c1cc(C(F)(F)F)cc(S(=O)(=O)NCCc2cccc(F)c2)c1			
49%	35.6%	30.1%			O=S(=O)(NCCc1cccc(F)c1)c1cc(-c2ccc(COc3cccc4ccccc34)cc2)cc(C(F)(F)F)c1			
7.5%	10.3%				O=S(=O)(NCCc1cccc(F)c1)c1cc(-c2ccc(F)nc2)cc(C(F)(F)F)c1			
57.9%	35%	32.8%	6.4 µM	10.4 µM	O=S(=O)(NCCc1cccc(F)c1)c1cc(-c2cccc3c2Sc2ccccc2S3)cc(C(F)(F)F)c1	22.8 µM		
15.8%					COC(=O)c1ccc(-c2cc(C(F)(F)F)cc(S(=O)(=O)NCCc3cccc(F)c3)c2)cn1			
10.3%					COc1ncc(-c2cc(C(F)(F)F)cc(S(=O)(=O)NCCc3cccc(F)c3)c2)c(OC)n1			
4.6%	52.2%	22.7%			O=S(=O)(NCCc1cccc(F)c1)c1cc(-c2cc3ccccc3[nH]2)cc(C(F)(F)F)c1			
50.5%	2.4%	11.1%			O=S(=O)(NCCc1cccc(F)c1)c1cc(-c2cccc3c2oc2ccccc23)cc(C(F)(F)F)c1			
22.2%	5.2%	7.8%			O=Cc1ccc(-c2cc(C(F)(F)F)cc(S(=O)(=O)NCCc3cccc(F)c3)c2)s1			
18.4%		9.1%			O=S(=O)(NCCc1cccc(F)c1)c1cc(-c2ccnc(F)c2)cc(C(F)(F)F)c1			
15.7%		4.2%			O=S(=O)(NCCc1cccc(F)c1)c1cc(-c2cccnc2)cc(C(F)(F)F)c1			
67.9%	50.8%	28.5%	5.06 µM	18 µM	O=S(=O)(NCCc1cccc(F)c1)c1cc(-c2ccc(COc3cccc(C(F)(F)F)c3)cc2)cc(C(F)(F)F)c1	28.2 µM		
57%	40.3%	22%	8.05 µM	31.5 µM	O=S(=O)(NCCc1cccc(F)c1)c1cc(-c2ccc(-c3cccs3)s2)cc(C(F)(F)F)c1	9.09 µM	inactive	Active
14.9%					COc1cc(-c2cc(C(F)(F)F)cc(S(=O)(=O)NCCc3cccc(F)c3)c2)c(OC)nn1			
67.7%	42.8%	33.1%	6.43 µM	25.4 µM	COCCc1ccc(OCc2ccc(-c3cc(C(F)(F)F)cc(S(=O)(=O)NCCc4cccc(F)c4)c3)cc2)cc1	45.1 µM		
